Source: patent US9115101B2 (Genentech, Inc., priority 2012, dated 2015)

The molecules below were run against T1, RORc ligand binding domain (Homo sapiens, UniProt P51449) (assay: In Vitro RORc Ligand Binding Assay (25-[3H]hydroxycholesterol radioligand filtration)). Conditions: In Vitro RORc Ligand Binding Assay; Table 4; read-out: RORc IC50.
T1 construct: host or cells: E. coli
T1 sequence (P51449 269-508 limits assumed): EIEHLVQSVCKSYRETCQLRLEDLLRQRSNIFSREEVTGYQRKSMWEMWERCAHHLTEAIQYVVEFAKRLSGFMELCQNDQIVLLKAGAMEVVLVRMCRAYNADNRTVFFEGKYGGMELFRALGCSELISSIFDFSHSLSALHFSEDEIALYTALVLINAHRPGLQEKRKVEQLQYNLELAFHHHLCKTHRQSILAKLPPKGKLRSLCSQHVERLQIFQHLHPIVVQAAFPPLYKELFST
In the case of `CC(=O)N1CCN(c2ccc(CN3CCCC(c4ccccc4)S3(=O)=O)c(F)c2)CC1` (single isomer, unassigned) [Example 1], the IC50 is reported as 247 nM.
For `CC(=O)N1CCN(c2ccc(CN3CCCC(c4ccccc4)S3(=O)=O)c(F)c2)CC1` (single isomer, unassigned) [Example 2], the IC50 was 157 nM.
Work on `CS(=O)(=O)N1CCC(Oc2ccc(CN3CCCC(c4ccccc4)S3(=O)=O)c(F)c2)CC1` (single isomer, unassigned) [Example 3] yielded an IC50 of 86 nM.
Work on `CS(=O)(=O)N1CCC(Oc2ccc(CN3CCCC(c4ccccc4)S3(=O)=O)c(F)c2)CC1` (single isomer, unassigned) [Example 4] yielded an IC50 of 37 nM.
For `CC(=O)N1CCN(c2ccc(CN3CCCC(c4ccc(F)cc4)S3(=O)=O)c(F)c2)CC1` (single isomer, unassigned) [Example 11, 1-(4-{3-Fluoro-4-[6-(4-fluoro-phenyl)-1,1-dioxo-[1,2]thiazinan-2-ylmethyl]-phenyl}-piperazin-1-yl)-ethanone], the IC50 was 125 nM.
Work on `CC(=O)N1CCN(c2ccc(CN3CCCC(c4ccc(F)cc4)S3(=O)=O)c(F)c2)CC1` (single isomer, unassigned) [Example 12, 1-(4-{3-Fluoro-4-[6-(4-fluoro-phenyl)-1,1-dioxo-[1,2]thiazinan-2-ylmethyl]-phenyl}-piperazin-1-yl)-ethanone] yielded an IC50 of 241 nM.
In the case of `CC(=O)N1CCN(c2ccc(CN3C(C)(C)CCC(c4ccccc4)S3(=O)=O)c(F)c2)CC1` (single isomer, unassigned) [Example 13, 1-{4-[4-(3,3-Dimethyl-1,1-dioxo-6-phenyl-[1,2]thiazinan-2-ylmethyl)-3-fluoro-phenyl]-piperazin-1-yl}-ethanone], the IC50 is reported as 142 nM.
`CC(=O)N1CCN(c2ccc(CN3C(C)(C)CCC(c4ccccc4)S3(=O)=O)c(F)c2)CC1` (single isomer, unassigned) [Example 14, 1-{4-[4-(3,3-Dimethyl-1,1-dioxo-6-phenyl-[1,2]thiazinan-2-ylmethyl)-3-fluoro-phenyl]-piperazin-1-yl}-ethanone] showed an IC50 of 1900 nM.
Molecule `CC(=O)N1CCN(c2ccc(CN3CCCCC(c4ccccc4)S3(=O)=O)c(F)c2)CC1` (single isomer, unassigned) [Example 15, 1-{4-[4-(1,1-Dioxo-7-phenyl-[1,2]thiazepan-2-ylmethyl)-3-fluoro-phenyl]-piperazin-1-yl}-ethanone] has an IC50 of 11 nM.
For `CC(=O)N1CCN(c2ccc(CN3CCCCC(c4ccccc4)S3(=O)=O)c(F)c2)CC1` (single isomer, unassigned) [Example 16, 1-{4-[4-(1,1-Dioxo-7-phenyl-[1,2]thiazepan-2-ylmethyl)-3-fluoro-phenyl]-piperazin-1-yl}-ethanone], the IC50 was 32 nM.
`CC(=O)N1CCN(c2ccc(CN3[C@@H](C)CCC(c4ccccc4)S3(=O)=O)c(F)c2)CC1` (single isomer, unassigned) [Example 17] gave an IC50 of 16 nM.
In the case of `CC(=O)N1CCN(c2ccc(CN3[C@@H](C)CCC(c4ccccc4)S3(=O)=O)c(F)c2)CC1` (single isomer, unassigned) [Example 18], the IC50 is reported as 47 nM.
For `CC(=O)N1CCN(c2ccc(CN3[C@H](C)CCC(c4ccccc4)S3(=O)=O)c(F)c2)CC1` (single isomer, unassigned) [Example 19], the IC50 was 2800 nM.
`CC(=O)N1CCN(c2ccc(CN3[C@H](C)CCC(c4ccccc4)S3(=O)=O)c(F)c2)CC1` (single isomer, unassigned) [Example 20] showed an IC50 of 26 nM.
Work on `CC(=O)N1CCN(c2ccc(CN3CCOCC(c4ccccc4)S3(=O)=O)c(F)c2)CC1` (single isomer, unassigned) [Example 22, 1-{4-[4-(4,4-Dioxo-3-phenyl-[1,4,5]oxathiazepan-5-ylmethyl)-3-fluoro-phenyl]-piperazin-1-yl}-ethanone] yielded an IC50 of 751 nM.
Molecule `CC(=O)N1CCN(c2ccc(CN3CCOCC(c4ccccc4)S3(=O)=O)c(F)c2)CC1` (single isomer, unassigned) [Example 23, 1-{4-[4-(4,4-Dioxo-3-phenyl-[1,4,5]oxathiazepan-5-ylmethyl)-3-fluoro-phenyl]-piperazin-1-yl}-ethanone] has an IC50 of 45 nM.
With `CC(=O)N1CCN(c2ccc(CN3[C@@H](C)COCC(c4ccccc4)S3(=O)=O)c(F)c2)CC1` (single isomer, unassigned) [Example 24] the IC50 was 182 nM.
For `CC(=O)N1CCN(c2ccc(CN3[C@@H](C)COCC(c4ccccc4)S3(=O)=O)c(F)c2)CC1` (single isomer, unassigned) [Example 25], the IC50 was 32 nM.
`CC(=O)N1CCN(c2ccc(CN3[C@H](C)COCC(c4ccccc4)S3(=O)=O)c(F)c2)CC1` (single isomer, unassigned) [Example 26] was tested, and the IC50 was 2000 nM.
`CC(=O)N1CCN(c2ccc(CN3[C@H](C)COCC(c4ccccc4)S3(=O)=O)c(F)c2)CC1` (single isomer, unassigned) [Example 27] showed an IC50 of 188 nM.
`CC(=O)N1CCN(c2ccc(CN3C[C@H](C)OCC(c4ccccc4)S3(=O)=O)c(F)c2)CC1` (single isomer, unassigned) [Example 28] gave an IC50 of 104 nM.
`CC(=O)N1CCN(c2ccc(CN3C[C@H](C)OCC(c4ccccc4)S3(=O)=O)c(F)c2)CC1` (single isomer, unassigned) [Example 29] gave an IC50 of 24 nM.
`CC(=O)N1CCN(c2ccc(CN3C[C@@H](C)OCC(c4ccccc4)S3(=O)=O)c(F)c2)CC1` (single isomer, unassigned) [Example 30] gave an IC50 of 107 nM.
In the case of `CC(=O)N1CCN(c2ccc(CN3C[C@@H](C)OCC(c4ccccc4)S3(=O)=O)c(F)c2)CC1` (single isomer, unassigned) [Example 31], the IC50 is reported as 717 nM.
In the case of `C[C@H]1CCC(c2ccccc2)S(=O)(=O)N1Cc1ccc(OC2CCN(S(C)(=O)=O)CC2)cc1F` (single isomer, unassigned) [Example 32], the IC50 is reported as 17 nM.
`C[C@H]1CCC(c2ccccc2)S(=O)(=O)N1Cc1ccc(OC2CCN(S(C)(=O)=O)CC2)cc1F` (single isomer, unassigned) [Example 33] gave an IC50 of 13 nM.
Molecule `C[C@H]1CCC(c2ccccc2)S(=O)(=O)N1Cc1ccc(OC2CCN(S(C)(=O)=O)CC2)nc1` (single isomer, unassigned) [Example 34] has an IC50 of 686 nM.
`C[C@H]1CCC(c2ccccc2)S(=O)(=O)N1Cc1ccc(OC2CCN(S(C)(=O)=O)CC2)nc1` (single isomer, unassigned) [Example 35] was tested, and the IC50 was 1100 nM.
Molecule `C[C@H]1CCC(c2ccccc2)S(=O)(=O)N1Cc1ccc(OC2CN(S(C)(=O)=O)C2)cc1F` (single isomer, unassigned) [Example 36] has an IC50 of 71 nM.
With `C[C@H]1CCC(c2ccccc2)S(=O)(=O)N1Cc1ccc(OC2CN(S(C)(=O)=O)C2)cc1F` (single isomer, unassigned) [Example 37] the IC50 was 194 nM.
Molecule `C[C@H]1CCC(c2ccccc2)S(=O)(=O)N1Cc1ccc(OC2CCS(=O)(=O)CC2)cc1F` (single isomer, unassigned) [Example 38] has an IC50 of 135 nM.
With `C[C@H]1CCC(c2ccccc2)S(=O)(=O)N1Cc1ccc(OC2CCS(=O)(=O)CC2)cc1F` (single isomer, unassigned) [Example 39] the IC50 was 119 nM.
`CC(=O)N1CCN(c2ccc(CN3[C@@H](C)CCC(c4ccccc4)S3(=O)=O)cc2)CC1` (single isomer, unassigned) [Example 40] gave an IC50 of 81 nM.

Same assay, conditions: read-out: RORc IC50
For `C[C@H]1CCC(c2ccccc2)S(=O)(=O)N1Cc1ccc(N2CCn3c(cnc3C#N)C2)cc1F` (some centres unmarked), the IC50 was 182 nM.
`C[C@H]1CCC(c2ccccc2)S(=O)(=O)N1Cc1ccc(N2CCC(N3CCCC3=O)CC2)cc1F` (some centres unmarked) showed an IC50 of 878 nM.
